Data from patent US5840696A (priority 1997, dated 1998).

Assays:
[1] = biological target: T1, central kappa-opioid receptors (Rattus norvegicus, UniProt P34975); test: renal responses to i.c.v. peptide in rats pre-treated i.c.v. with nor-binaltorphimine; type: in vivo; settings: peptide 10 μg i.c.v.; nor-binaltorphimine 1 μg i.c.v.
T1 construct: Anesthetized male Sprague-Dawley rats; from tissue; host or cells: central nervous system of conscious male Sprague-Dawley rats (in vivo, lateral cerebral ventricle injection)
T1 sequence (P34975 whole entry): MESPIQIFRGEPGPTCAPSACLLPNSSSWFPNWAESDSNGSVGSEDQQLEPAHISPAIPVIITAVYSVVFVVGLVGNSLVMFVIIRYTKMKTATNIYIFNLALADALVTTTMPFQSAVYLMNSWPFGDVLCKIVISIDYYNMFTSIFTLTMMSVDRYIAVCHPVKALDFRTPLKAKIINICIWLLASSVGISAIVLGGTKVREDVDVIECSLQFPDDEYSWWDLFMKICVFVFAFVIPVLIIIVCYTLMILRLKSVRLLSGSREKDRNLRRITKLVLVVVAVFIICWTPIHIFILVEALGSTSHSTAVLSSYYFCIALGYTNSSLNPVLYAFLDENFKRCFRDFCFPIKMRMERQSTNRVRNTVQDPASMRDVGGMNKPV
From the text: Abbreviations are V, urine flow rate and UNa V, urinary sodium excretion.
For comparative purposes, the renal responses produced by central administration of the endogenous opioid peptide, dynorphin A, were also studied i.c.v.
(§1) Anesthetized male Sprague-Dawley rats (275-300 g, Sprague-Dawley, Inc., Indianapolis, Ind.) were implanted with chronic arterial and venous cannulas and a bladder catheter in accordance with previously published methods (10, 12). For experiments in which drugs were administered i.c.v., a stainless steel cannula was stereotaxically implanted into the right lateral ventricle of rats under anesthesia at least 5-7 days prior to experimentation (11). On the morning of the study rats were placed in a rat holder which permits forward and backward movement and allows for collection of urine from the bladder catheter. Conscious rats were then infused i.v. with isotonic saline (50 μl/min) for the duration of the experiment. The arterial cannulae was then flushed and attached to a pressure transducer (Statham P23Db) and the urinary bladder catheter led to a collection beaker. After equilibration and stabilization of urine flow rate and urinary sodium excretion (approximately 2-3 hours) the experimental protocol described in each figure legend commenced. […]

[2] = test system: intact-chest, anesthetized rats; test: bolus injection into right atrium versus left atrium, systemic arterial pressure (first-pass lung transit); type: in vivo, rat; settings: inferred from right versus left atrial injection
From the text: Such a hemodynamic profile would be particularly desireable in patients experiencing congestive heart failure since pulmonary vasodilation would be expected to enhance resolution of pulmonary edema and systemic vasodilation (i.e. afterload reduction) would be expected to enhance myocardial performance.

[3] = test system: systemic vascular bed of the anesthetized rat; settings: literature (18); cited from earlier work
rat kidney = test: site of infusion (right renal artery, suprarenal and infrarenal aorta, intravenous) and urine flow rate; type: in vivo; settings: direct right renal arterial administration
mice = settings: administration to mice, literature (4,5); cited from earlier work
[4] = test system: conscious Sprague-Dawley rats; test: intracerebroventricular (i.c.v.) injection in conscious rats: cardiovascular and renal responses; type: in vivo, rat
Experimental: (§2) Abbreviations are HR, heart rate; MAP, mean arterial pressure; V, urine flow rate; and UNa V, urinary sodium excretion. Statistical significance within each group was determined by a repeated measures analysis of variance followed by a Bonferroni multiple comparisons test; asterisks (a, b, or c) denote a significant change (p<0.05) from control within each group.
Anesthetized male Sprague-Dawley rats (275-300 g, Sprague-Dawley, Inc., Indianapolis, Ind.) were implanted with chronic arterial and venous cannulas and a bladder catheter in accordance with previously published methods (10, 12). For experiments in which drugs were administered i.c.v., a stainless steel cannula was stereotaxically implanted into the right lateral ventricle of rats under anesthesia at least 5-7 days prior to experimentation (11). On the morning of the study rats were placed in a rat holder which permits forward and backward movement and allows for collection of urine from the bladder catheter. Conscious rats were then infused i.v. with isotonic saline (50 μl/min) for the duration of the experiment. The arterial cannulae was then flushed and attached to a pressure transducer (Statham P23Db) and the urinary bladder catheter led to a collection beaker. After equilibration and stabilization of urine flow rate and urinary sodium excretion (approximately 2-3 hours) the experimental protocol described in each figure legend commenced. Intravenous and i.c.v. stock solutions of nociceptin and nor-binaltorphimine were prepared fresh in isotonic saline vehicle. […] Animal experimentation and care procedures were in accordance with the National Institutes of Health guidelines for the care and use of animals.

[5] = test system: isolated feline renal, femoral, mesenteric and carotid arterial rings; test: isolated feline arterial rings (with endothelium) precontracted with phenylephrine
Experimental: Additional studies were performed in vitro to determine the contribution of changes in regional hemodynamics in the systemic vasodilator response to nociceptin.

[6] = test system: forskolin-stimulated cAMP production; settings: literature (4,5); cited from earlier work
[7] = test system: systemic vascular bed of the anesthetized rat; test: systemic vasodepressor response to bolus i.v. nociceptin in the anesthetized rat; type: in vivo
Experimental: N=number of animals. *p<0.05 when compared to corresponding control value.
Male rats (250-300 g) were anesthetized with pentobarbital sodium (30 mg/kg i.p.). Catheters were placed into a femoral artery and femoral vein for measurement of systemic […] blood pressure and administration of drugs, respectively. Cardiac output was calculated by using Columbus 2F thermodilution catheter placed fluoroscopically in the ascending aortic arch assess changes in temperature following a thermal reference injection of saline (0.2 ml) at room temperature into the right atrium via a jugular venous catheter. Changes in systemic arterial pressure were measured using a Gould P23Id pressure transducer and recorded on a Grass Model 7A recorder. Cardiac output was determined using a Columbus Cardiomax thermodilution cardiac output computer.
Values are means +/-SE; N=6. *p,0.05 compared with corresponding control (paired t test).

[8] = test system: constitutive nitric oxide synthase (cNOS); test: influence of L-NAME on urine flow rate responses in conscious rats; settings: L-NAME 30 mg/Kg i.v., 45 min before infusion
[9] = test system: conscious Sprague-Dawley rats; test: i.v. bolus administration of 30 μg nociceptin in conscious rats; type: in vivo, rat; settings: i.v. bolus 30 μg
Experimental: as §2
as §1, with “beaker.” for “beaker. After equilibration and stabilization of urine flow rate and urinary sodium excretion (approximately 2-3 hours) the experimental protocol described in each figure legend commenced.”

[10] = 0.3 ug, i.v. bolus, mean +/- SE, N=6
[11] = 1.0 ug, i.v. bolus, mean +/- SE, N=6
[12] = 3.0 ug, i.v. bolus, mean +/- SE, N=6

CC(C)C[C@H](NC(=O)[C@H](CCCCN)NC(=O)[C@H](CCCN=C(N)N)NC(=O)[C@H](C)NC(=O)[C@H](CO)NC(=O)[C@H](CCCCN)NC(=O)[C@H](CCCN=C(N)N)NC(=O)[C@H](C)NC(=O)CNC(=O)[C@@H](NC(=O)[C@H](Cc1ccccc1)NC(=O)CNC(=O)CNC(=O)[C@@H](N)Cc1ccccc1)[C@@H](C)O)C(=O)N[C@@H](C)C(=O)N[C@@H](CC(N)=O)C(=O)N[C@@H](CCC(N)=O)C(=O)O [nociceptin]
effect of i.c.v. nor-binaltorphimine pretreatment on the diuresis and antinatriuresis produced by the peptide [1]: did not alter | first-pass uptake or metabolism in the lung [2]: does not undergo significant first-pass uptake or metabolism | decrease of systemic arterial pressure, sensitivity to naloxone [3]: naloxone-insensitive | left or right ureteral flow rate (rat kidney): did not increase | response to painful stimuli (mice): hypersensitivity to painful stimuli | tachyphylaxis to the cardiovascular and renal responses ([4]; consecutive i.c.v. injection of the same dose (1, 10 or 30 μg)): did not develop | time of peak diuresis ([4]; i.c.v. 1 μg): 30 min | time of peak diuresis ([4]; i.c.v. 10 μg): 40 min | renal response (urine flow rate and urinary sodium excretion) ([4]; i.c.v. 10 μg, naive conscious rats): concurrent diuretic and antinatriuretic response | onset of diuresis compared with dynorphin A ([4]; i.c.v. 10 μg, p<0.05 at time 20 min): significantly delayed | diuretic response ([4]; i.c.v. 1, 10 or 30 μg): profound diuretic response | heart rate, mean arterial pressure and urinary sodium excretion ([4]; i.c.v. 1, 10 or 30 μg, versus group control): significant (p<0.05) decreases | duration of bradycardia ([4]; i.c.v., all doses): approximately 30 minutes | duration of hypotensive response ([4]; i.c.v., all doses): ~40 min | onset of bradycardia and hypotensive response ([4]; i.c.v., all doses (1, 10, 30 μg)): 1 to 3 min | minimum effective i.c.v. dose to evoke a change in urine flow rate and urinary sodium excretion ([4]; i.c.v., preliminary studies): 1 µg | relaxation of arterial rings [5]: ability to relax | forskolin-stimulated cAMP production [6]: inhibits forskolin-stimulated cAMP production | Cardiac Output [7, 10]: 111.3 ± 49.6 mL/min | Systemic Arterial Pressure [7, 10]: 150.0 +/- 15.5 mmHg | Systemic Vascular Resistance [7, 10]: 1.1 +/- 0.1 mmHg/ml/min | Cardiac Output [7, 11]: 102.8 ± 4.5 mL/min | Systemic Arterial Pressure [7, 11]: 141.0 +/- 17.8 mmHg | Systemic Vascular Resistance [7, 11]: 1.1 +/- 0.2 mmHg/ml/min | Cardiac Output [7, 12]: 96.8 ± 34.4 mL/min | Systemic Arterial Pressure [7, 12]: 109.6 +/- 19.8 mmHg | Systemic Vascular Resistance [7, 12]: 0.8 +/- 0.1 mmHg/ml/min | systemic vasodepressor response after L-NAME or L-NIO ([7]; 45 min after L-NAME or L-NIO): significantly inhibited | Cardiac Output ([7]; bolus i.v. doses): did not significantly alter cardiac output | systemic vasodepressor response after glybenclamide and meclofenamate ([7]; bolus i.v. injections, anesthetized rats): not inhibited | Systemic Arterial Pressure ([7]; bolus i.v. injections, pentobarbital-anesthetized rats): decreased systemic arterial pressure in a dose-dependant manner | increase in urine flow rate (V) in response to i.v. infusion after L-NAME [8]: significantly inhibited | cardiovascular and renal parameters [9]: did not alter any cardiovascular or renal parameter
